{"source": "patent US8975293B2", "about": "“Epigenetic co-repressors of the gamma-globin gene and methods of using same” (Regents of the University of Michigan, priority 2011, dated 2015)", "key": {"[1]": {"test_system": "primary human erythroid cells", "assay": "Hemoglobin analysis by HPLC, HbF synthesis", "format": "cell-based", "details": "day 14, average, untreated control 4.6%", "experimental": "(§1) Cryopreserved vials of purified human CD34+ cells, which were isolated from peripheral blood of healthy donors after mobilization with granulocyte colony-stimulating factor, were purchased from the Fred Hutchinson Cancer Research Center. The cells were grown and differentiated ex vivo into the erythroid lineage in 14 days by a two-phase culture method reported previously (Cui et al., 2011, Mol. Cell. Biol., 31:3298-3311; Giarratana et al., 2005, Nat. Biotechnol., 23:69-74). […] Cell morphology was examined by staining cytospins with a Wright-Giemsa stain (Sigma-Aldrich). Hemoglobin synthesis was examined by acid benzidine staining as previously described (Orkin et al., 1975, PNAS USA, 72:98-102).\nCells were lysed and analyzed for hemoglobin composition by the B10-Rad Variant II Hemoglobin Testing System equipped with an ion-exchange HPLC column (Hercules). Averages of three to five biological replicates are presented.\n(§2) A pLKO.1-puro lentiviral vector to express the LSD1 shRNA and a puromycin resistance gene was purchased from Sigma-Aldrich (TRCN0000046070), and the control empty vector was generated by removing a region (between EcoRI and NdeI sites) containing the hairpin sequence. Lentiviral particles were generated by transfecting the vectors into a packaging cell line. Cells were exposed to the viruses on day 4 of the culture for 24 hours, and then to 1 μg/ml puromycin on day 6 through day 14 for selection of infected cells."}, "[2]": {"test_system": "primary human erythroid cells", "assay": "Proliferation and viability of differentiating erythroid cells, trypan blue count", "format": "cell-based", "details": "day 4 through day 14", "experimental": "as §1, §2"}, "[3]": {"details": "3 or 10 mg/kg per day s.c., 5 days a week for 4 weeks", "experimental": "(§3) Control mice were injected with saline only. After 4 weeks of injections, bone marrow cells were harvested for RTqPCR analysis for expression of the genes for human gamma- and beta-globins, and mouse alpha-globin as an internal control. Three or four mice were used for each experimental condition."}, "fetal gamma-globin mRNA": {"test_system": "fetal gamma-globin mRNA", "format": "cell-based, human", "details": "TC treatment, by day 14", "experimental": "as §1\nExpression of the genes for human gamma- and beta-globins, LSD1, mouse alpha-globin, and 18S rRNA was determined by RT-qPCR assay as described previously (Cui et al., supra). The abundance of each transcript was calculated based on the threshold cycle value and the amplification efficiency, experimentally determined for each primer pair, and then normalized to the abundance of 18S rRNA transcript as an internal control. All the primer pairs except for 18S rRNA were designed to span introns. […]"}, "[4]": {"test_system": "H3K4 demethylase activity of LSD1", "details": "differentiating erythroid cells, normalized to untreated cells", "experimental": "as §1"}, "gamma-globin promoter": {"test_system": "gamma-globin promoter", "details": "day 11", "experimental": "as §1"}, "[5]": {"test_system": "primary human erythroid cells", "details": "0.5, 1.5 or 5 μM", "experimental": "as §1\nFor cell surface marker analysis, cells were stained with phycoerythrin (PE)-Cy7-conjugated anti-CD34 (eBioscience), PE-conjugated anti-CD71 (eBioscience), and PE-Cy5-conjugated antiglycophorin A (BD Biosciences) antibodies. For cytoplasmic HbF analysis, cells were fixed in 0.05% glutaraldehyde for 10 min, permeabilized in 0.1% Triton X-100 for 5 min, and then stained with allophycocyanin-conjugated anti-HbF antibody (Invitrogen). Stained cells were analyzed with the FACSCanto II (BD Biosciences)."}, "human gamma-globin gene": {"test_system": "human gamma-globin gene", "details": "3 or 10 mg/kg per day s.c., 5 days a week for 4 weeks; dose dependent", "experimental": "(§4) Expression of the genes for human gamma- and beta-globins, LSD1, mouse alpha-globin, and 18S rRNA was determined by RT-qPCR assay as described previously (Cui et al., supra). The abundance of each transcript was calculated based on the threshold cycle value and the amplification efficiency, experimentally determined for each primer pair, and then normalized to the abundance of 18S rRNA transcript as an internal control. All the primer pairs except for 18S rRNA were designed to span introns.\nas §3"}, "Human beta-globin gene": {"test_system": "Human beta-globin gene", "details": "3 or 10 mg/kg per day s.c., 5 days a week for 4 weeks", "experimental": "as §4, §3"}}}
{"smiles": "N[C@@H]1C[C@H]1c1ccccc1", "note": "(racemic) [TC, Tranylcypromine]", "values": [{"measurement": "HbF, % of total hemoglobin (HPLC)", "setting": "[1]; 0.5 μM", "value": 13, "unit": "%"}, {"measurement": "HbF, % of total hemoglobin (HPLC)", "setting": "[1]; 1.5 μM", "value": 20, "unit": "%"}, {"measurement": "HbF, % of total hemoglobin (HPLC)", "setting": "[1]; 5 μM", "value": 31, "unit": "%"}, {"measurement": "cell proliferation", "setting": "[2]; 0.5 μM", "value": "did not affect"}, {"measurement": "cell viability", "setting": "[2]; 0.5 μM", "value": "did not affect"}, {"measurement": "cell proliferation", "setting": "[2]; 1.5 μM", "value": "did not affect"}, {"measurement": "cell viability", "setting": "[2]; 1.5 μM", "value": "did not affect"}, {"measurement": "cell proliferation", "setting": "[2]; 5 μM", "value": "reduced cell proliferation"}, {"measurement": "cell viability", "setting": "[2]; 5 μM", "value": "without affecting viability"}, {"measurement": "activity of the mice (anecdotal observation)", "setting": "[3]", "value": "much more active"}, {"measurement": "signs of toxic effects on hematological or other systems", "setting": "[3]", "value": "did not exhibit any signs of toxic effects"}, {"measurement": "tolerability", "setting": "[3]", "value": "well tolerated"}, {"measurement": "induction of fetal gamma-globin mRNA", "setting": "fetal gamma-globin mRNA", "value": "up to 9.4 fold"}, {"measurement": "global H3K4 dimethylation", "setting": "[4]", "value": "enhanced global H3K4 dimethylation in a dose dependent manner"}, {"measurement": "H3K4 dimethylation at the gamma-globin promoter", "setting": "gamma-globin promoter", "value": "enhanced H3K4 dimethylation"}, {"measurement": "cell population positive for both CD71 and GPA", "setting": "[5]", "value": "slight to moderate reduction"}, {"measurement": "HbF inductive effect by flow cytometry", "setting": "[5]; day 14", "value": "both pancellular and dose-dependent"}, {"measurement": "induction of human gamma-globin gene expression in bone marrow cells vs control mice", "setting": "human gamma-globin gene", "value": "about 3 fold"}, {"measurement": "human beta-globin gene expression in bone marrow cells", "setting": "Human beta-globin gene", "value": "not significantly affected"}]}
